Assay results taken from patent publication US20250388554A1, “ANTIBACTERIAL COMPOUNDS, METHOD OF PRODUCTION AND USE THEREOF” (priority 2024, published 2025).
≈ marks a conversion by molar mass, not a printed value.

Columns and labels:
[1] = tested on: drug resistant clinical isolate S7 (Resistant to INH); assay: Resazurin assay (REMA) / alamarBlue MIC; format: cell-based; conditions: Mycobacterium tuberculosis, read-out: MIC99 (S7)
[2] = tested on: drug resistant clinical isolate S6 (Resistant to INH+Rifampicin); assay: microbe, parasite or virus in culture; format: cell-based; conditions: Mycobacterium tuberculosis, read-out: MIC99 (S6)

| SMILES | MIC99 [1] [µM] | MIC99 [2] [µM] |
| --- | --- | --- |
| CC(N)c1ncnn1C (stereo not shown) [SF1, 1-(2-methyl-1,2,4-triazol-3-yl)ethanamine] | 250 (≈ 31.5 µg/mL) | – |
| CC(C)C(N)c1ncnn1C (stereo not shown) [SF2, 2-methyl-1-(2-methyl-1,2,4-triazol-3-yl)propan-1-amine] | 125 (≈ 19.3 µg/mL) | 125 (≈ 19.3 µg/mL) |
| NCCSc1ncn[nH]1 [SF3, 2-(1H-1,2,4-triazol-5-ylsulfanyl)ethanamine] | 250 (≈ 36.1 µg/mL) | – |
